# Measurements taken from article PMC5045383 (Oncotarget, 2016).
# Tests used:
# [1] = target: FLT3-ITD (ITD+kinase domain); assay: ADP-Glo biochemical assay; conditions: ATP final 50 μM
# Experimental: FLT3 wt/FLT3-ITD/FLT3-D835Y cytoplasmic fragment with his tag was cloned into baculovirus expression vector pFASTHT-A. The recombinant bacmid was transfected into SF9 by Cellfectin (Invitrogen). High titer viral stocks were obtained by two rounds of amplification of the virus. The protein was expressed by infecting SF9 cells with high titer viral stocks for 48 h. Cells were harvested and re-suspended in lysis buffer (50 mM Tris pH 7.5, 150 mM NaCl, and 1 mM PMSF). The cells were lysed by ultra sonication and the cell debris was removed by ultracentrifugation. The supernatant was incubated with Ni-affinity beads (GE). The beads were then washed by lysis buffer containing 50–250 mM imidazole. The elute was loaded to superdex 75. The protein was concentrated to 1 mg/ml and aliquots were frozen and stored at −80°C. The protein was used for ADP-Glo™ kinase assay.
# The reaction in each tube was started immediately by adding ATP and kept going for an hour under 37°C. After the tube cooled for 5 minutes at room temperature, 5 μL solvent reactions were carried out in a 384-well plate. […] At the end, 10 μL of kinase detection reagent was added into the well and incubated for 30 minutes to produce a luminescence signal. Luminescence signal was measured with an automated plate reader (Perkin-Elmer Envision) and each measurement was performed in triplicate.
# PF-382 (FLT3-wt) = assay: cells; format: cell-based; conditions: 72 hours
# Experimental: Cells were grown in 96-well culture plates (3000/well). […] Cell proliferation was determined after 72 hours drug treatment. […] Cell viability was measured with the CellTiter–Glo assay (Promega, USA), according to the manufacturer's instructions, and luminescence was measured in a multi-label reader (Envision, PerkinElmer, USA). […] GI50 values were calculated using Prism 5.0 (GraphPad Software, San Diego, CA).
# FLT3-ITD kinase = target: FLT3-ITD kinase; set-up: method as in PMID 22037378; conditions: cited from earlier work
# BaF3 = assay: Anti-proliferation, parental BaF3 cells; format: cell-based
# Experimental: Cells were grown in 96-well culture plates (3000/well). […] Cell proliferation was determined after 72 hours drug treatment. […] Cell viability was measured with the CellTiter–Glo assay (Promega, USA), according to the manufacturer's instructions, and luminescence was measured in a multi-label reader (Envision, PerkinElmer, USA). Data were normalized to control groups (DMSO) and represented by the mean of three independent measurements with standard error < 20%. GI50 values were calculated using Prism 5.0 (GraphPad Software, San Diego, CA).
# Retroviral constructs for BaF3-FLT3 mutants were made based on the pMSCVpuro (Clontech) backbone. For TEL-FLT3 vector, the first 1 kb of human TEL gene with an artificial myristoylation sequence ([…]) was cloned into pMSCVpuro retroviral vector, followed by a 3xFLAG tag sequence and a stop codon. Then the kinase domain coding sequence of FLT3 was inserted in-frame between TEL and 3× FLAG sequences. For full-length expression vectors, the coding sequences of FLT3 variants were directly cloned in pMSCVpuro vector with a 3X FLAG tag at the C-terminal end. All mutagenesis studies were performed using the QuikChange Site-Directed Mutagenesis Kit (Stratagene) following the manufacturer's instructions. […]
# MOLM-14 xenograft tumor = MOLM-14 xenograft tumor model; format: in vivo, Balb/c-nu mice; conditions: daily oral gavage, MOLM14 xenograft
# From the text: Five weeks old female Balb/c-nu mice were purchased from the Shanghai Experimental Center, Chinese Science Academy (Shanghai, China). All animals were housed in a specific pathogen-free facility and used according to the animal care regulations of Hefei Institutes of Physical Science Chinese Academy of Sciences. Prior to implantation, cells were harvested during exponential growth. 10 million MOLM-14 cells in 1640 were formulated as a 1:1 mixture with Matrigel (BD Biosciences) and injected into the subcutaneous space on the right flank of Balb/c-nu mice. Daily oral administration was initiated when MOLM-14 tumors had reached a size of 200 to 400 mm^3. Animals were then randomized into treatment groups of 10 mice each for efficacy studies. […] Tumor growth was measured daily after A674563 treatment. Tumor volumes were calculated as follows: tumor volume (mm^3) = [(W^2 × L)/2] in which width (W) is defined as the smaller of the two measurements and length (L) is defined as the larger of the two measurements.
smiles,measurement,setting,value
Cc1[nH]nc2ccc(-c3cncc(OC[C@@H](N)Cc4ccccc4)c3)cc12 [A674563],IC50,[1],134 nM
same,GI50,PF-382 (FLT3-wt),2700 nM
same,Kd,FLT3-ITD kinase,83 nM
same,GI50,BaF3,1600 nM
same,tumor growth inhibition (TGI),MOLM-14 xenograft tumor; 25 mg/kg/d,45%
same,tumor growth inhibition (TGI),MOLM-14 xenograft tumor; 50 mg/kg/day,78%
